In patent US8277842B1, “Enteric-coated HT-2157 compositions and methods of their use” (Dart NeuroScience (Cayman) Ltd., priority 2012, dated 2012):

Experiments:
[1] = Repeat-dose animal toxicology studies, PO; format: in vivo, mice, rats, dogs; settings: non-enteric coated
[2] = Ninety-day study with HT-2157, methemoglobin formation, dogs; format: in vivo
From the text: (§1) These findings indicate that a process of hemolytic anemia and compensatory hematopoietic response to anemia occurred in the animals. The hemolytic anemia was reversible upon discontinuation of drug treatment. In animals at high doses, there were also increases in methemoglobin of between 30 and 40% in treatment as compared to control animals. These increases resolved 1 to 2 weeks after discontinuation of dosing.

[3] = Metabolite HT-2800 in microsomes incubated with HT-2157, human; format: in vitro ADME
Protocol: (§2) Such HT-2157 administration studies were carried out in several animal models, including rats, dogs (as well as mice). In this regard, the major human metabolite of HT-2157, HT-2800, was found in human, mouse, and monkey microsomes following incubation with the HT-2157 compound, but it was not detected in rat or dog microsomes or in plasma collected from dogs dosed with HT-2157.

[4] = Metabolite HT-2800 in microsomes incubated with HT-2157, dog; format: in vitro ADME
Protocol: as §2

[5] = Ninety-day study with HT-2157, methemoglobin formation, rats; format: in vivo
From the text: as §1

[6] = Metabolite HT-2800 in microsomes incubated with HT-2157, mouse; format: in vitro ADME
Protocol: as §2

[7] = Ninety-day study with HT-2157, methemoglobin formation, mice; format: in vivo
From the text: as §1

[8] = 28-day oral toxicity study with non-enteric coated HT-2157, dog; format: in vivo; settings: for Cmax / AUC(0-t): plasma, 50 mg/kg/day, at NOEL; for AUC(0-t): read-out: AUC0-24 of HT-2157 in plasma
Protocol: (§3) Consequently, separate toxicokinetic studies directed to […] (without an enteric coating) were performed in rat and in dog, which is considered the more sensitive species. […] In these studies, the non-toxic dose level for oral administration of HT-2157 over 28 days was 30 mg/kg/day for female rats, 100 mg/kg/day for male rats and 50 mg/kg/day for dogs (both sexes). Table 1 lists the mean Cmax and AUC values of HT-2157 in the plasma associated with these dosages: […]

[9] = Metabolite HT-2800 in plasma of dogs dosed with HT-2157; format: in vivo, dog; settings: plasma collected from dogs dosed with HT-2157
Protocol: as §2

[10] = Metabolite HT-2800 in microsomes incubated with HT-2157, monkey; format: in vitro ADME
Protocol: as §2

in vivo = settings: rat, po; for AUC(0-t): AUC0-24 of HT-2157 in plasma; for Cmax: Cmax of HT-2157 in plasma; for NOEL / NOEL (first NOEL column) / non-toxic dose level: 28 days
Protocol: as §3

[11] = after systemic administration; Oegren et al. 2006; cited from earlier work
[12] = Metabolite HT-2800 in microsomes incubated with HT-2157, rat; format: in vitro ADME
Protocol: as §2

[13] = female, female dog, day 1 of dosing
[14] = female, female dog, day 28 of dosing
[15] = male, male dog, day 1 of dosing
[16] = male, male dog, day 28 of dosing

## O=C1C(=Nc2cccc(C(F)(F)F)c2)c2ccccc2N1c1ccc(O)cc1 [HT-2800]
[1]; rats up to 6 months, dogs 9 months
  drug-related findings in repeat-dose toxicology: dose-dependent shifts in hemoglobin fractions (methemoglobin, carboxyhemoglobin, oxyhemoglobin) and mild to moderate reversible hemolytic anemia with associated compensatory responses

## O=C1C(=Nc2cccc(C(F)(F)F)c2)c2ccccc2N1c1ccccc1 [HT-2157]
[2]
  dose with statistically significant methemoglobin formation: ≥ 30 mg/kg/day
[3]
  metabolite HT-2800 following incubation with HT-2157: found
[4]
  metabolite HT-2800 following incubation with HT-2157: not detected
[5]
  dose with statistically significant methemoglobin formation: 150 mg/kg/day
[6]
  metabolite HT-2800 following incubation with HT-2157: found
[1]; mice up to 3 months, rats up to 1 year, dogs up to 9 months
  drug-related findings in repeat-dose toxicology: dose-dependent shifts in hemoglobin fractions (methemoglobin, carboxyhemoglobin, oxyhemoglobin) and mild to moderate reversible hemolytic anemia with associated compensatory responses
[7]
  dose with statistically significant methemoglobin formation: 750 mg/kg/day
[8]; both, in vivo, 28 days
  non-toxic dose level: 50 mg/kg/day
[8]; female, in vivo, 28 days
  NOEL: 1000
  NOEL (first NOEL column): 50
[8]; [13]
  Cmax: 162 ng/mL
  AUC(0-t): 571 ng·h/mL
[8]; [14]
  Cmax: 104 ng/mL
  AUC(0-t): 799 ng·h/mL
[8]; male, in vivo, 28 days
  NOEL: 1000
  NOEL (first NOEL column): 50
[8]; [15]
  Cmax: 99 ng/mL
  AUC(0-t): 676 ng·h/mL
[8]; [16]
  Cmax: 87.1 ng/mL
  AUC(0-t): 550 ng·h/mL
[9]
  metabolite HT-2800 in plasma: not detected
[10]
  metabolite HT-2800 following incubation with HT-2157: found
In vivo; female, 30 mg/kg/day
  AUC0-24 of HT-2157 in plasma: 235 ng·h/mL
  AUC(0-t): 283 ng·h/mL
  Cmax: 109 ng/mL
In vivo; female
  NOEL: 177
  NOEL (first NOEL column): 30
  non-toxic dose level: 30 mg/kg/day
In vivo; male, 100 mg/kg/day
  AUC0-24 of HT-2157 in plasma: 1445 ng·h/mL
  AUC(0-t): 1380 ng·h/mL
  Cmax: 252 ng/mL
In vivo; male
  NOEL: 590
  NOEL (first NOEL column): 100
  non-toxic dose level: 100 mg/kg/day
[11]
  blood-brain barrier passage: can cross the blood-brain barrier
[12]
  metabolite HT-2800 following incubation with HT-2157: not detected
